Test results reported in patent US20130158070A1, “CONJUGATES OF POLYUNSATURATED FATTY ACIDS AND AMINE-CONTAINING COMPOUNDS AND USES THEREOF” (priority 2010, published 2013).

Tests used:
[1] = Pharmacokinetic profile after oral administration in rats; type: in vivo, Sprague-Dawley male rats
Description: Evaluation of the pharmacokinetic profile of MWL001 after oral administration in rats was performed.
Sprague-Dawley male rats weighing 300-325 g were used to evaluate the oral absorption of MWL001 and its blood levels. They were deprived of food overnight and given free access to water. A dose of 10 mg/kg MWL-001 (3.3 mg/rat) was dispersed in 2.5 mL DDW and delivered to the rats by oral gavage. Blood samples (300 μl) from the rats' tails were collected in heparin containing tubes at 0, 0.5, 1, 1.5, 2, 3, 4, 6, 8, 12 and 24 h. The samples were immediately centrifuged at 10,000 rpm for 5 min, after which 150 μl of plasma samples were transferred to new tubes and stored at −80° C. until analyzed by LCMS/MS.
The assay was based on protein precipitation of MWL001 and DHA (as an MWL001 metabolite) using methanol (100 μL plasma sample mixed with […] of methanol. The separation was carried out under reverse-phase conditions employing a Phenomenex Synergi, column (MAX-RP, 50×2 mm, 2.5 μm, 100A (in gradient mode. The mobile phase A was methanol/water/formic acid 20/80/0.2 and the mobile phase B was methanol/water/formic acid 80/20/0.2. The flow rate was maintained at 0.3 mL/min, and the column was maintained at 40° C. HPLC-MS/MS analysis was performed with a Shimadzu LC-20 HPLC system coupled with a Sciex Qtrap 3200 Turbo Ion Spray detector in positive ionization mode. The tested samples were quantified against a calibration curve in the range of 5-50 ng/mL.

[2] = tested on: carrageenan-induced edema; experiment: Carrageenan-induced paw edema in rats; type: in vivo, Sprague dawley rats; conditions: carrageenan 1 mg/paw, versus Ibuprofen, FIG. 4
Description: Exemplary conjugates were subjected to in vivo study of paw edema measurements in rats. Sprague dawley rats (150-200 grams) were used. Edema was induced by a single sub-plantar injection of carrageenan (1 mg/paw) into the left hind paw of the rat under light ether anesthesia. The total volume injected was 0.1 ml. The paw volume was measured immediately before the injection and at hourly intervals thereafter using a hydroplethysmometer (model 7150, Ugo Basile, Italy). The results were expressed either as the increase in paw volume (ml) calculated by subtracting the basal volume or by calculating the area under the time-course curve (AUC; ml h) for each group.
The anti-inflammatory activity of the conjugates was tested versus Ibuprofen, as a reference, on carrageenan-induced edema at different time intervals.

DNBS-induced colitis = experiment: DNBS-induced experimental colitis in mice, oral administration; type: in vivo; conditions: day four after DNBS, MWL001 50 mg/kg oral daily
Description: In this study, the effect of MWL001 on pro-inflammatory mediators in DNBS-induced experimental colitis in mice was evaluated. In particular it was observed that there was no expression of TNF-α, CD4, TGF-13, CD25 in the colon tissue from sham-treated mice. MWL001 and DEX were administered orally and daily starting at six hours after the DNBS challenge.
Colitis was induced with a very low dose of 2,4-dinitrobenzene sulfonic acid (DNBS) (4 mg per mouse) by using a modification of the method first described in mice. […] Mice were anesthetized by Enflurane. DNBS (4 mg in 100 μl of 50% ethanol) was injected into the rectum through a catheter inserted 4.5 cm proximally to the anus. The carrier alone (100 μl of 50% ethanol) was administered in control experiments. Thereafter, the animals were kept for 15 minutes in a Trendelenburg position to avoid reflux. […] On Day four, the animals were weighed and anaesthetized with chloral hydrate, and their abdomen was opened by a midline incision. The colon was removed, freed from surrounding tissues, opened along the antimesenteric border and processed for histology.
TNF-α and IL-6 levels were evaluated and colon tissues collected at four days after DNBS administration. Briefly, portions of terminal colon were homogenized as previously described in phosphate-buffered saline (PBS, ICN Biomedicals, Milan, Italy) containing two mmol/L of phenyl-methyl sulfonyl fluoride (PMSF, Sigma Chemical Co.). The assay was carried out using a colorimetric, commercial kit (R&D system Milan, Italy) according to the manufacturer instructions. All cytokines determinations were performed in duplicate serial dilutions.
At four days after DNBS administration, colon tissues were fixed in 10% (w/v) PBS-buffered formaldehyde and 7 μm sections were prepared from paraffin embedded tissues. After deparaffinization, endogenous peroxidase was quenched with 0.3% (v/v) hydrogen peroxide in 60% (v/v) methanol for 30 min. The sections were permeabilized with 0.1% (w/v) Triton X-100 in PBS for 20 min. Non-specific adsorption was minimized by incubating the section in 2% (v/v) normal goat serum in PBS for 20 min. Endogenous biotin or avidin binding sites were blocked by sequential incubation for 15 min with biotin and avidin (Vector Laboratories, Burlingame, Calif.), respectively. Sections were incubated overnight with: 1) purified polyclonal antibody directed towards CD4 (Santa Cruz Biotechnology, 1:500 in PBS, v/v) or 2) with purified anti-CD25 (Santa Cruz Biotecnology 1:500 in PBS, w/v) or 3) with anti- TNF-α polyclonal antibody (Santa Cruz Biotechnology, N-19:sc-1350, 1:500 in PBS, v/v) or 4) with anti-TGF-β polyclonal antibody (Santa Cruz, 1:500 in PBS, v/v).
Sections were washed with PBS, and incubated with a secondary antibody. Specific labelling was detected with a biotin-conjugated goat anti-rabbit IgG and avidin-biotin peroxidase complex (Vector Laboratories, Burlingame, Calif.).

[3] = male, Sprague-Dawley, rat, 10 mg/kg oral gavage, plasma

SMILES: CCC=CCC=CCC=CCC=CCC=CCC=CCCC(=O)N1CC(O)CC1C(=O)O (stereo not drawn) [MWL001]
- Cl (Clearence) ([1]; 10 mg/kg oral gavage, plasma): 25.212 ± 3.152 mL/min/kg
- V (Volume of distribution) ([1]; 10 mg/kg oral gavage, plasma): 11283.0 ± 3583.1
- oral absorption / bioavailability ([1]; 10 mg/kg oral, FIG. 9): high bioavailability
- AUC [1, 3]: 6690 ± 838 ng·h/mL
- Cmax [1, 3]: 1040 ± 77.5 ng/mL
- Tmax [1, 3]: 2.3 ± 0.5 h
- half-life ([1]; male, Sprague-Dawley, rat, 10 mg/kg oral gavage, plasma, read-out: T½ (converted)): 4.9 ± 0.6 h
- metabolism (major metabolite) ([1]; oral, plasma, FIG. 9): undergoes decomposition to DHA
- anti-inflammatory effect (paw swelling volume) [2]: superior to Ibuprofen
- IL-6 colon levels (DNBS-induced colitis; colorimetric kit): significant reduction
- TNF-α colon levels (DNBS-induced colitis; colorimetric kit): significant reduction
- expression of CD4 in colon tissue (DNBS-induced colitis; immunostaining): significantly reduced
- expression of CD25 in colon tissue (DNBS-induced colitis; immunostaining): significantly reduced
- expression of TGF-β in colon tissue (DNBS-induced colitis; immunostaining): significantly reduced
- expression of TNF-α in colon tissue (DNBS-induced colitis; immunostaining): significantly reduced
